The results in this text go back to patent publication US9763445B2, “Safened herbicidal compositions comprising a pyridine carboxylic acid herbicide” (Dow AgroSciences, LLC, priority 2014, dated 2017).

This assay deals with giant foxtail (SETFA). Briefly: Postemergence greenhouse trial, % visual injury on giant foxtail. The class given is in vivo, Setaria faberi. As to conditions: alone, 35 g/ha. As for the experimental part:
Seeds of the desired test plant species were planted in Sun Gro MetroMix® 306 planting mixture, which typically has a pH of 6.0 to 6.8 and an organic matter content of about 30 percent, in plastic pots with a surface area of 103.2 square centimeters (cm^2). When required to ensure good germination and healthy plants, a fungicide treatment and/or other chemical or physical treatment was applied. The plants were grown for 7-36 days (d) in a greenhouse with an approximate 14-hour (h) photoperiod which was maintained at about 23° C. during the day and 22° C. during the night. Nutrients and water were added on a regular basis and supplemental lighting was provided with overhead metal halide 1000-Watt lamps as necessary. The plants were employed for testing when they reached the second or third true leaf stage.
Weighed amounts of technical material were dissolved in a volume of 97:3 volume per volume (v/v) acetone/dimethyl sulfoxide (DMSO) to stock solutions. […] The concentrated stock solutions were diluted with an aqueous mixture of 1.5% v/v of Agri-dex crop oil concentrate to provide the appropriate application rates. Compound requirements are based upon a 12 milliliter (mL) application volume at a rate of 187 liters per hectare (L/ha). […]
The treated plants and control plants were placed in a greenhouse as described above and watered by sub-irrigation to prevent wash-off of the test compounds. After 20-22 d, the condition of the test plants as compared with that of the control plants was determined visually and scored on a scale of 0 to 100 percent where 0 corresponds to no injury and 100 corresponds to complete kill. The condition of the test plants was compared with that of the control plants as determined visually and scored on a scale of 0 to 100 percent, where 0 corresponds to no injury and 100 corresponds to complete kill. […]
The safener cloquintocet-mexyl was combined with compound 1, compound 2, compound 4, compound 5, and compound 6, and applied to corn/maize (ZEAMX) and spring wheat (TRZAS) and the phytotoxicity of the herbicidal compositions was measured. […]

On to `CCCCCC(C)OC(=O)COc1ccc(Cl)c2cccnc12` (stereo not shown) [CQC-m, cloquintocet-mexyl, reference compound], for which the “% visual injury, Ob” value is recorded as 0%.
